From patent US7998926B2, “Dimerized T-cell receptor fragment, its compositions and use” (The Arizona Boad of Regents on Behfl of the University of …, priority 2001, dated 2011)
Positions of bridges follow the written chain, without caps; N, C: chain ends. Chains are numbered I, II in the order given. No end group written: not given here.

Key:
[1] = Immunomodulatory effects of homologs of the β3 peptide
[2] = system: LP-BM5 retrovirus; experiment: Spleen weight in LP-BM5 retrovirus-infected mice; format: in vivo, C57BL/6 mice; conditions: 200 μg peptide intraperitoneally two and six weeks after infection, relative to untreated infected animals
From the text: FIG. 1. Spleen weight. The spleen weights were substantially (p<0.05) elevated in the infected mice relative to the uninfected animals. […] “a” indicates significant differences at p<0.05 compared with uninfected saline treatment.
(§1) Female C57BL/6 mice, four weeks old, were obtained from the Charles River Laboratories Inc. (Wilmington, Del.). Animals were cared for as required by the University of Arizona Committee on Animal Research. After two weeks housing in the Central Animal Facility, University of Arizona, they were randomly assigned to one of the following treatment groups: uninfected normal mice (four mice); LP-BM5-infected mice treated with saline (pyrogen free; six mice); LP-BM5-infected mice treated with 200 μg TCR Vβ3 monomer peptide (six mice); LP-BM5-infected mice treated with 200 μg TCR Vβ3 dimer peptide (six mice). […] Intraperitoneal administration of monomer and dimer peptides (dissolved in saline) was performed two and six weeks after LP-BM5 infection. Infection to of these mice with LP-BM5 retrovirus leads to the rapid induction of clinical symptoms with virtually no latent phase.

[3] = system: splenocyte T cells; experiment: Con A-stimulated splenocyte proliferation (T cells) of LP-BM5-infected mice; format: in vivo, C57BL/6 mice; conditions: 200 μg/mouse, vs infected saline group
From the text: FIG. 2. Con A-stimulated splenocyte proliferation. […] “a” indicates significant differences at p<0.05 compared with uninfected saline treatment group. “b” indicates significant differences at p<0.05 compared with infected saline treatment group.
as §1

[4] = system: splenocyte B cells; experiment: LPS-stimulated splenocyte proliferation (B cells) of LP-BM5-infected mice; format: in vivo, C57BL/6 mice; conditions: 200 μg/mouse, vs infected saline group
From the text: FIG. 3. LPS-stimulated splenocyte proliferation. […] “a” indicates significant differences at p<0.05 compared with uninfected saline treatment group. “b” indicates significant differences at […] compared with infected saline treatment group.
as §1

[5] = system: IL-2; experiment: IL-2 production of splenocyte of LP-BM5-infected mice; format: in vivo, C57BL/6 mice; conditions: 200 μg/mouse, vs infected saline group
From the text: FIG. 4. IL-2 production of splenocyte. […] “a” indicates significant differences at p<0.05 compared with uninfected saline treatment group. “b” indicates significant differences at p<0.05 compared with infected saline treatment group.
as §1

[6] = system: IFN-γ; experiment: IFN-γ production of splenocyte of LP-BM5-infected mice; format: in vivo, C57BL/6 mice; conditions: 200 μg/mouse, vs infected saline group
From the text: FIG. 5. IFN-γ production of splenocyte. […] “a” indicates significant differences at P <0.05 compared with uninfected saline treatment group. “b” indicates significant differences at P<0.05 compared with infected saline treatment group.
as §1

[7] = system: IL-6; experiment: Interleukin-6 production of splenocyte of LP-BM5-infected mice; format: in vivo, C57BL/6 mice; conditions: 200 μg/mouse, mitogen-stimulated splenocytes, vs infected saline group
From the text: FIG. 7. Interleukin-6 production of splenocyte. […] “a” indicates significant differences at p<0.05 compared with uninfected saline treatment group. “b” indicates significant differences at p<0.05 compared with infected saline treatment group.
as §1

[8] = system: aged mice; conditions: injection of peptide, not highly dimerised; cited from earlier work
[9] = system: IL-4; experiment: Interleukin-4 production of splenocyte of LP-BM5-infected mice; format: in vivo, C57BL/6 mice; conditions: 200 μg/mouse, mitogen-stimulated splenocytes, vs infected saline group
From the text: FIG. 6. Interleukin-4 production of splenocyte. […] “a” indicates significant differences at P<0.05 compared with uninfected saline treatment group, “b” indicates significant differences at P<0.05 compared with infected saline treatment group.
as §1

Row | Substance | Immunomodulatory effects compared with the β3 peptide [1] | Spleen weight (splenomegaly) [2] | Con A-stimulated splenocyte proliferation (T-cell proliferation) [3] | LPS-stimulated splenocyte proliferation (B cell proliferation) [4] | IL-2 production of splenocyte [5] | IFN-γ production of splenocyte [6] | Interleukin-6 production of splenocyte [7] | Immunosenescence [8] | Spleen weight (splenomegaly) ([2]; listed as Vβ3 peptide dimers) | Con A-stimulated splenocyte proliferation (T-cell proliferation) ([3]; listed as Vβ3 peptide dimers) | LPS-stimulated splenocyte proliferation (B cell proliferation) ([4]; listed as Vβ3 peptide dimers) | IFN-γ production of splenocyte ([6]; listed as Vβ3 peptide dimers) | Interleukin-4 production of splenocyte [9] | Interleukin-4 production of splenocyte ([9]; listed as Vβ3 peptide dimers)
1 | C S P K S G H D T V S W Y Q Q A (CSPKSGHDTVSWYQQA) [Pep Vβ5.2] | Active |  |  |  |  |  |  |  |  |  |  |  |  | 
2 | CKPISGHNSLFWYRQT [TCR Vβ3 monomer, 16-mer TCR Vβ CDR1 peptide of T-cell receptor β chain clone YT35, monomer form, reference compound] |  | significant reduction in spleen weight | significantly (p<0.05) prevented the suppression of T-cell proliferation | significantly (p<0.05) prevented the suppression of T-cell proliferation | significantly (p<0.05) normalized IL-2 production | significantly (p<0.05) normalized IFN-γ production | significantly (p<0.05) normalized IL-6 | reduces immunosenescence in aged mice |  |  |  |  |  | 
3 | TCR Vβ3 dimer: homodimer of two SEQ ID NO:1 peptide monomers, formed through a disulphide bond at the N-terminal cysteine (chain 1 CKPISGHNSLFWYRQT; chain 2 CKPISGHNSLFWYRQT; disulfide I:1-II:1) |  | significant reduction in spleen weight | significantly (p<0.05) prevented the suppression of T-cell proliferation | significantly (p<0.05) prevented the suppression of T-cell proliferation |  | significantly (p<0.05) normalized IFN-γ production | at least as effective as the monomer |  | at least as effective as the monomer | at least as effective as the monomer | at least as effective as the monomer | at least as effective as the monomer | significantly (p<0.05) normalized IL-4 | at least as effective as the monomer
